{"source": "ChEMBL document CHEMBL5528066", "about": "“Discovery of Novel N-(Anthracen-9-ylmethyl) Benzamide Derivatives as ZNF207 Inhibitors Promising in Treating Glioma” (J Med Chem, 2024)", "key": {"MKN-45": {"system": "MKN-45", "assay": "Antiproliferative activity against human MKN-45 cells assessed as inhibition of cell growth incubated for 72 hrs by CCK-8 assay", "format": "functional, cell-based", "conditions": "MKN-45, 72 h"}, "H4 [1]": {"system": "H4", "assay": "Inhibition of sphere formation in human H4 cells at 4 uM measured after 10 days in well containing 100 cells by microscopic analysis", "format": "functional, cell-based", "conditions": "time 10.0 day"}, "[2]": {"assay": "Toxicity in female C57BL/6 mouse assessed as change in cellular structure of kidney at 45 mg/kg, po administered once a day for 2 weeks by H and E staining based analysis", "format": "organism-based", "conditions": "in vivo, 336 h"}, "Hs 683 [3]": {"system": "Hs 683", "assay": "Inhibition of colony formation in human Hs 683 cells assessed as reduction in colony area at 5 uM treated on day 1 and measured after 14 days by crystal violet staining based microscopic analysis relative to control", "format": "functional", "conditions": "Hs 683, 336 h, time 14 day"}, "Hs 683 [4]": {"system": "Hs 683", "assay": "Inhibition of sphere formation in human Hs 683 cells at 1 uM measured after 10 days in well containing 1 cells by microscopic analysis", "format": "functional, cell-based", "conditions": "time 10.0 day"}, "U-251 [5]": {"system": "U-251", "assay": "Inhibition of colony formation in human U-251MG cells assessed as reduction in colony area at 2.5 uM treated on day 1 and measured after 14 days by crystal violet staining based microscopic analysis relative to control", "format": "functional", "conditions": "U-251, 336 h, time 14 day"}, "LN-229 [6]": {"system": "LN-229", "assay": "Inhibition of colony formation in human LN-229 cells assessed as reduction in number of cell clones treated on day 1 and measured after 14 days by crystal violet staining based microscopic analysis", "format": "functional", "conditions": "dose 0.625-5 µM, time 14.0 day"}, "LN-229-Luc": {"system": "LN-229-Luc", "assay": "Antitumor activity against human Ln-229-Luc cells xenografted in po dosed BALB/c nude mouse administered once a day and measured after 3 to 31 days", "format": "functional, organism-based", "conditions": "dose 15-45 mg/kg, time 3-31 day"}, "LN-229 [7]": {"system": "LN-229", "assay": "Antitumor activity against human LN-229 cells xenografted in BALB/c nude mouse assessed as reduction in proportion of p-H3 positive cells at 15 to 45 mg/kg, po administered once a day and measured after 49 days by immunohistochemistry analysis", "format": "functional, organism-based", "conditions": "dose 15-45 mg/kg, time 49.0 day"}, "H4 [8]": {"system": "H4", "assay": "Inhibition of sphere formation in human H4 cells at 4 uM measured after 10 days in well containing 1 cells by microscopic analysis", "format": "functional, cell-based", "conditions": "time 10.0 day"}, "Hs 683 [9]": {"system": "Hs 683", "assay": "Inhibition of sphere formation in human Hs 683 cells assessed as fold reduction in sphere initiating frequency at 1 uM incubated for 10 days by microscopic analysis relative to control", "format": "functional", "conditions": "time 10 day"}, "AGS": {"system": "AGS", "assay": "Antiproliferative activity against human AGS cells assessed as inhibition of cell growth incubated for 72 hrs by CCK-8 assay", "format": "functional, cell-based"}, "[10]": {"assay": "Toxicity in male C57BL/6 mouse assessed as change in cellular structure of thymus at 45 mg/kg, po administered once a day for 2 weeks by H and E staining based analysis", "format": "organism-based", "conditions": "in vivo, 336 h"}, "Hs 683 [11]": {"system": "Hs 683", "assay": "Inhibition of sphere formation in human Hs 683 cells at 1 uM measured after 10 days in well containing 10000 cells by microscopic analysis", "format": "functional, cell-based", "conditions": "time 10.0 day"}, "LN-229 [12]": {"system": "LN-229", "assay": "Inhibition of cell migration in human LN-229 cells assessed as reduction in wound closure ability at 5 uM measured after 24 hrs by wound healing assay relative to control", "format": "functional"}, "[13]": {"assay": "Drug concentration in male Sprague-Dawley rat spleen at 45 mg/kg, po measured after 8 hrs by LC-MS/MS analysis", "format": "ADME, organism-based", "conditions": "read-out: Ct"}, "[14]": {"assay": "Toxicity in male C57BL/6 mouse assessed as change in cellular structure of liver at 45 mg/kg, po administered once a day for 2 weeks by H and E staining based analysis", "format": "organism-based", "conditions": "in vivo, 336 h"}, "[15]": {"biological_target": "BUB3-interacting and GLEBS motif-containing protein ZNF207 (Homo sapiens, UniProt O43670)", "sequence (O43670 whole entry)": "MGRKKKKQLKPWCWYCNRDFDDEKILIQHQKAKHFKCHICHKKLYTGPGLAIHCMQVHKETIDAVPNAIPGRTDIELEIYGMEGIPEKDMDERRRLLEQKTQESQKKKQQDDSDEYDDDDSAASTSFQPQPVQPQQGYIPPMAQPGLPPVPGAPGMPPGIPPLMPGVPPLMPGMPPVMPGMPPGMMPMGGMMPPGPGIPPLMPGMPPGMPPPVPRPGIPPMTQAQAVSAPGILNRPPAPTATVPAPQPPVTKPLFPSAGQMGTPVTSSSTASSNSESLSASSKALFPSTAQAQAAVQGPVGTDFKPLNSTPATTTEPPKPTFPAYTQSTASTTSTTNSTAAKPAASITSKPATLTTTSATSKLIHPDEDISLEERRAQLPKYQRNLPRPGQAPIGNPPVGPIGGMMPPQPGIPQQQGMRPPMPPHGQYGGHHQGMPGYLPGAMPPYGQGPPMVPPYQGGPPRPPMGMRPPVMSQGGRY", "assay": "Binding affinity to ZNF207 in human U-251MG cells assessed as thermal stabilization by measuring increase in melting temperature at 30 uM incubated for 3 hrs by CETSA", "format": "cell-based"}, "Hs 683 [16]": {"system": "Hs 683", "assay": "Inhibition of sphere formation in human Hs 683 cells at 4 uM measured after 10 days in well containing 1 cells by microscopic analysis", "format": "functional, cell-based", "conditions": "time 10.0 day"}, "H4 [17]": {"system": "H4", "assay": "Inhibition of sphere formation in human H4 cells at 1 uM measured after 10 days in well containing 1 cells by microscopic analysis", "format": "functional, cell-based", "conditions": "time 10.0 day"}, "Hs 683 [18]": {"system": "Hs 683", "assay": "Inhibition of sphere formation in human Hs 683 cells at 4 uM measured after 10 days in well containing 100 cells by microscopic analysis", "format": "functional, cell-based", "conditions": "time 10.0 day"}, "H4 [19]": {"system": "H4", "assay": "Inhibition of sphere formation in human H4 cells at 8 uM measured after 10 days in well containing 100 cells by microscopic analysis", "format": "functional, cell-based", "conditions": "time 10.0 day"}, "U-251 [20]": {"system": "U-251", "assay": "Inhibition of sphere formation in human U-251MG cells at 8 uM measured after 10 days in well containing 100 cells by microscopic analysis", "format": "functional, cell-based", "conditions": "time 10.0 day"}, "[21]": {"assay": "Toxicity in female C57BL/6 mouse assessed as change in cellular structure of heart at 45 mg/kg, po administered once a day for 2 weeks by H and E staining based analysis", "format": "organism-based", "conditions": "in vivo, 336 h"}, "[22]": {"assay": "Drug concentration in male Sprague-Dawley rat stomach at 45 mg/kg, po measured after 8 hrs by LC-MS/MS analysis", "format": "ADME, organism-based", "conditions": "read-out: Ct"}, "[23]": {"assay": "Toxicity in male C57BL/6 mouse assessed as change in cellular structure of heart at 45 mg/kg, po administered once a day for 2 weeks by H and E staining based analysis", "format": "organism-based", "conditions": "in vivo, 336 h"}, "[24]": {"assay": "Toxicity in male C57BL/6 mouse assessed as change in cellular structure of brain at 45 mg/kg, po administered once a day for 2 weeks by H and E staining based analysis", "format": "organism-based", "conditions": "in vivo, 336 h"}, "U-251 [25]": {"system": "U-251", "assay": "Inhibition of sphere formation in human U-251MG cells at 8 uM measured after 10 days in well containing 10 cells by microscopic analysis", "format": "functional, cell-based", "conditions": "time 10.0 day"}, "LN-229 [26]": {"system": "LN-229", "assay": "Inhibition of sphere formation in human LN-229 cells assessed as fold reduction in sphere initiating frequency at 4 uM incubated for 10 days by microscopic analysis relative to control", "format": "functional", "conditions": "time 10 day"}, "H4 [27]": {"system": "H4", "assay": "Inhibition of sphere formation in human H4 cells at 4 uM measured after 10 days in well containing 10000 cells by microscopic analysis", "format": "functional, cell-based", "conditions": "time 10.0 day"}, "[28]": {"assay": "Drug concentration in female Sprague-Dawley rat kidney at 45 mg/kg, po measured after 8 hrs by LC-MS/MS analysis", "format": "ADME, organism-based", "conditions": "read-out: Ct"}, "Hs 683 [29]": {"system": "Hs 683", "assay": "Induction of apoptosis in human Hs 683 cells at 1.25 uM incubated for 24 hrs by Annexin V-FITC/PI staining based flow cytometry analysis", "format": "functional, cell-based"}, "[30]": {"assay": "Toxicity in male C57BL/6 mouse assessed as change in cellular structure of intestine at 45 mg/kg, po administered once a day for 2 weeks by H and E staining based analysis", "format": "organism-based", "conditions": "in vivo, 336 h"}, "H4 [31]": {"system": "H4", "assay": "Inhibition of sphere formation in human H4 cells at 4 uM measured after 10 days in well containing 10 cells by microscopic analysis", "format": "functional, cell-based", "conditions": "time 10.0 day"}, "U-251 [32]": {"system": "U-251", "assay": "Antiproliferative activity against human U-251MG cells assessed as inhibition of cell growth measured after 72 hrs by CCK-8 assay", "format": "functional, cell-based", "conditions": "U-251, 72 h"}, "LN-229 [33]": {"system": "LN-229", "assay": "Antitumor activity against human LN-229 cells xenografted in BALB/c nude mouse assessed as tumor growth delay by measuring tumor volume at 45 mg/kg, po administered once a day and measured every 2 days for 49 days (reference value: 700 […])", "format": "functional", "conditions": "time 49 day"}, "U-251 [34]": {"system": "U-251", "assay": "Inhibition of sphere formation in human U-251MG cells at 1 uM measured after 10 days in well containing 10000 cells by microscopic analysis", "format": "functional, cell-based", "conditions": "time 10.0 day"}}, "note": "Calls of active or inactive are those of the source. The rule behind the calls is not given here."}
{"smiles": "N#CC1(C(=O)NCCC2CCN(Cc3ccccc3)CC2)CC2(Br)c3ccccc3C1c1ccccc12", "note": "(racemic)", "values": [{"measurement": "IC50", "setting": "MKN-45", "result": 3.84, "unit": "µM"}, {"measurement": "inhibition", "setting": "H4 [1]", "result": "Active"}, {"measurement": "Activity", "setting": "[2]", "result": "Non-Toxic"}, {"measurement": "inhibition at 5 µM", "setting": "Hs 683 [3]", "result": 100, "unit": "%"}, {"measurement": "inhibition", "setting": "Hs 683 [4]", "result": "Active"}, {"measurement": "inhibition at 2.5 µM", "setting": "U-251 [5]", "result": 100, "unit": "%"}, {"measurement": "inhibition", "setting": "LN-229 [6]", "result": "Dose-Dependent Effect"}, {"measurement": "Activity", "setting": "LN-229-Luc", "result": "Dose-Dependent Effect"}, {"measurement": "Activity", "setting": "LN-229 [7]", "result": "Active"}, {"measurement": "inhibition", "setting": "H4 [8]", "result": "Active"}, {"measurement": "fold change (FC)", "setting": "Hs 683 [9]", "result": 2.8}, {"measurement": "IC50", "setting": "AGS", "result": 9.42, "unit": "µM"}, {"measurement": "Activity", "setting": "[10]", "result": "Non-Toxic"}, {"measurement": "inhibition", "setting": "Hs 683 [11]", "result": "inactive"}, {"measurement": "inhibition at 5 µM", "setting": "LN-229 [12]", "result": 16.6, "unit": "%"}, {"measurement": "concentration at 8 h", "setting": "[13]", "result": 655, "unit": "ng/g"}, {"measurement": "Activity", "setting": "[14]", "result": "Non-Toxic"}, {"measurement": "ΔTm", "setting": "[15]", "result": 5.2, "unit": "°C"}, {"measurement": "inhibition", "setting": "Hs 683 [16]", "result": "Active"}, {"measurement": "inhibition", "setting": "H4 [17]", "result": "Active"}, {"measurement": "inhibition", "setting": "Hs 683 [18]", "result": "Active"}, {"measurement": "inhibition", "setting": "H4 [19]", "result": "Active"}, {"measurement": "inhibition", "setting": "U-251 [20]", "result": "Active"}, {"measurement": "Activity", "setting": "[21]", "result": "Non-Toxic"}, {"measurement": "concentration at 8 h", "setting": "[22]", "result": 608, "unit": "ng/g"}, {"measurement": "Activity", "setting": "[23]", "result": "Non-Toxic"}, {"measurement": "Activity", "setting": "[24]", "result": "Non-Toxic"}, {"measurement": "inhibition", "setting": "U-251 [25]", "result": "Active"}, {"measurement": "fold change (FC)", "setting": "LN-229 [26]", "result": 36.42}, {"measurement": "inhibition", "setting": "H4 [27]", "result": "inactive"}, {"measurement": "concentration at 8 h", "setting": "[28]", "result": 816, "unit": "ng/g"}, {"measurement": "Activity", "setting": "Hs 683 [29]", "result": "Active"}, {"measurement": "Activity", "setting": "[30]", "result": "Non-Toxic"}, {"measurement": "inhibition", "setting": "H4 [31]", "result": "Active"}, {"measurement": "IC50", "setting": "U-251 [32]", "result": 13.1, "unit": "µM"}, {"measurement": "Activity", "setting": "LN-229 [33]", "result": 200, "unit": "mm3"}, {"measurement": "inhibition", "setting": "U-251 [34]", "result": "inactive"}]}
